In publication PMC8305571 (2021):

Legend:
[1] = test system: Scle (DNA, G4) TGGGGGGGTGGGTGGGT; assay: CD melting, 264 nm; settings: 50 mM KCl; mBR buffer, pH 7.0; derived from two Tm (81.5, >100); indicative values
[2] = test system: HTR (DNA, G4) GGGTTAGGGTTAGGGTTAGGG; assay: CD melting, 294 nm; settings: 50 mM KCl; mBR buffer, pH 7.0; derived from two Tm (63.5, 64.0); indicative values
[3] = test system: TBA (DNA, G4) GGTTGGTGTGGTTGG; assay: CD melting, 294 nm; settings: 50 mM KCl; mBR buffer, pH 7.0; derived from two Tm (46.5, 48.5); indicative values
[4] = test system: Hema (DNA, G4) GGGGTCGGGCGGGCCGGGTG; assay: CD melting, 264 nm; settings: 50 mM KCl; mBR buffer, pH 7.0; derived from two Tm (72.0, 86.0); indicative values
[5] = test system: STAT (DNA, G4) GGGCGGGCGGGCGGG; assay: CD melting, 264 nm; settings: mBR buffer, pH 7.0, indicative values
[6] = test system: ionK (DNA, G4) GGGTTAGGGTTAGGGTAGGG; assay: CD melting, 294 nm; settings: 50 mM KCl; mBR buffer, pH 7.0; derived from two Tm (59.1, 58.0); indicative values
[7] = test system: VEGF (DNA, G4) GGGGCGGGCCGGGGGCGGG; assay: CD melting, 264 nm; settings: mBR buffer, pH 7.0, indicative values
[8] = test system: TFO1 (DNA, triplex) AAAAAAAACCCCTTTTTTTTCCCCTTTTTTTT; assay: CD melting, 282 nm; settings: no added salt; mBR buffer, pH 7.0; derived from two Tm (20.4, 17.7); indicative values
[9] = test system: G3A (DNA, G4) GGGAGGGAGGGAGGGA; assay: CD titration, PAGE; settings: 50 mM NaCl or KCl; mBR buffer, pH 7.0; up to 260 µM RhG (CD), 130 µM (PAGE)
[10] = test system: G3C (DNA, G4) GGGCGGGCGGGCGGGC; assay: CD titration, PAGE; settings: 50 mM NaCl or KCl; mBR buffer, pH 7.0; up to 260 µM RhG (CD), 130 µM (PAGE)
[11] = test system: HTR (DNA, G4) GGGTTAGGGTTAGGGTTAGGG; assay: CD melting, 294 nm; settings: 50 mM NaCl; 25 mM mBR buffer, pH 7.0; ligand concentration not given; indicative value
[12] = test system: Scle (DNA, G4) TGGGGGGGTGGGTGGGT; assay: CD melting, 264 nm; settings: 50 mM NaCl; 25 mM mBR buffer, pH 7.0; ligand concentration not given; indicative value
[13] = test system: TBA (DNA, G4) GGTTGGTGTGGTTGG; assay: CD melting, 294 nm; settings: 50 mM NaCl; 25 mM mBR buffer, pH 7.0; ligand concentration not given; indicative value
[14] = test system: Hema (DNA, G4) GGGGTCGGGCGGGCCGGGTG; assay: CD melting, 264 nm; settings: 50 mM NaCl; 25 mM mBR buffer, pH 7.0; ligand concentration not given; indicative value
[15] = test system: ionK (DNA, G4) GGGTTAGGGTTAGGGTAGGG; assay: CD melting, 294 nm; settings: 50 mM NaCl; 25 mM mBR buffer, pH 7.0; ligand concentration not given; indicative value
[16] = test system: Scle (DNA, G4) TGGGGGGGTGGGTGGGT; assay: induced CD and UV-Vis titration; settings: 50 mM KCl; mRB buffer, pH 7.0; 130 µM RhG, DNA up to 27 µM
[17] = test system: HTR (DNA, G4) GGGTTAGGGTTAGGGTTAGGG; assay: temperature gradient gel electrophoresis (TGGE); settings: 2.5 mM KCl; 25 mM mBR buffer, pH 7.0; 260 µM RhG in gel; antiparallel form; parallel form >62 ± 2 °C with RhG

In the case of `CCN=c1cc2oc3cc(NCC)c(C)cc3c(-c3ccccc3C(=O)OCC)c-2cc1C`, the “ΔTm (Tm shift)” value [1] is reported as > 18.5 °C, the “ΔTm (Tm shift)” value [2] is reported as 0.5 °C and the “ΔTm (Tm shift)” value [3] is reported as 2.0 °C. For the same compound, the “ΔTm (Tm shift)” value [4] was 14.0 °C, the “ΔTm (RhG minus no ligand)” value ([5]; 50 mM KCl, derived from two Tm (92.8, >100)) was > 7.2 °C and the “ΔTm (RhG minus no ligand)” value ([5]; 50 mM NaCl, derived from two Tm (54.5, 76.5)) was 22.0 °C. For the same compound, the “ΔTm (RhG minus no ligand)” value [6] was -1.1 °C, the “ΔTm (RhG minus no ligand)” value ([7]; 50 mM KCl, derived from two Tm (85.6, 87.9)) was 2.3 °C and the “ΔTm (RhG minus no ligand)” value ([7]; 50 mM NaCl, derived from two Tm (47.5, 82.0)) was 34.5 °C. The “ΔTm (Tm shift)” value [8] was -2.7 °C, the binding [9] was “yes” and the binding [10] was “yes”. For the same compound, the Tm [11] was 52.0 (no ligand 52.0) °C, the Tm [12] was 77.0 (no ligand 62.0) °C and the Tm [13] was 26.8 (no ligand 20.0) °C. For the same compound, the Tm [14] was 54.3 (no ligand ND) °C, the Tm [15] was 48.5 (no ligand 46.2) °C and the binding [16] was “yes”. For the same compound, the Tm [17] was 50.6 (no ligand 46.5) °C.
